Experimental data as given in ChEMBL document CHEMBL6103599, “Design of Potent Menin-KMT2A Interaction Inhibitors with Improved In Vitro ADME Properties and Reduced hERG Affinity” (ACS Med Chem Lett, 2025).

target: not listed separately; test: Binding affinity to His6-tagged MEN1 458-551 deletion A5T mutant (unknown origin) assessed as dissociation constant by SPR analysis; parameters: species or system Homo sapiens; conditions: not given

Compound	Kd
C[C@@H]1COCC(=O)N1Cc1cc(F)ccc1Oc1nncnc1N1CC2(CCN(CC3(C)CC3)CC2)C1	0.05 nM

tested on: not listed separately; test: Half life in male CD-1 mouse at 1 mg/kg, iv measured after 8 hrs by LC-MS/MS analysis; type: ADME, organism-based; conditions: in vivo

Compound	half-life
CCN(C(=O)c1cc(F)ccc1Oc1nncnc1N1CC2(CCN(CC3(C)CC3)CC2)C1)C(C)C	133 min
CC(C)C1(CN2CCC3(CC2)CN(c2ncnnc2Oc2ccc(F)cc2CN2C(=O)COC[C@H]2C)C3)CC1	45.6 min
CC1(CN2CCC3(CC2)CN(c2ncnnc2Oc2ccc(F)cc2CN2C(=O)CC4CC42)C3)CC1 (racemic)	38.4 min

tested on: MV4-11; test: Antiproliferative activity against human MV4-11 cells assessed as cell growth inhibition measured after 7 days by CellTiter-Glo assay; type: functional, cell-based; conditions: MV4-11, 168 h

Compound	IC50
CCN(C(=O)c1cc(F)ccc1Oc1nncnc1N1CC2(CCN(CC3(SC)CC3)CC2)C1)C(C)C	12 nM
CCC1(CN2CCC3(CC2)CN(c2ncnnc2Oc2ccc(F)cc2CN2C(=O)COC[C@H]2C)C3)CC1	21 nM
CSC1(CN2CCC3(CC2)CN(c2ncnnc2Oc2ccc(F)cc2CN2C(=O)COC[C@H]2C)C3)CC1	13 nM
CC1(CN2CCC3(CC2)CN(c2ncnnc2Oc2ccc(F)cc2CN2CCOCC2=O)C3)CC1	190 nM
C[C@@H]1COCC(=O)N1Cc1cc(F)ccc1Oc1nncnc1N1CC2(CCN(CC3(C)CC3)CC2)C1	19 nM
CC1(CN2CCC3(CC2)CN(c2ncnnc2Oc2ccc(F)cc2C(=O)N2CCOCC2)C3)CC1	314 nM
CCN(C(=O)c1cc(F)ccc1Oc1nncnc1N1CC2(CCN(CC3(C)CC3)CC2)C1)C(C)C	19 nM
CSC1(CN2CCC3(CC2)CN(c2ncnnc2Oc2ccc(F)cc2CN2CCCC2=O)C3)CC1	345 nM
CC(C)C1(CN2CCC3(CC2)CN(c2ncnnc2Oc2ccc(F)cc2CN2C(=O)COC[C@H]2C)C3)CC1	19 nM
CCN(C(=O)c1cc(F)ccc1Oc1nnccc1N1CC2(CCN(CC3(C)CC3)CC2)C1)C(C)C	58 nM
C[C@@H]1CCCCN1C(=O)c1cc(F)ccc1Oc1nncnc1N1CC2(CCN(CC3(C)CC3)CC2)C1	145 nM
C[C@@H]1COC[C@H](C)N1C(=O)c1cc(F)ccc1Oc1nncnc1N1CC2(CCN(CC3(C)CC3)CC2)C1	65 nM
C[C@@H]1CCCN1C(=O)c1cc(F)ccc1Oc1nncnc1N1CC2(CCN(CC3(C)CC3)CC2)C1	231 nM
C[C@@H]1COC[C@@H](C)N1C(=O)c1cc(F)ccc1Oc1nncnc1N1CC2(CCN(CC3(C)CC3)CC2)C1	48 nM
CC1(CN2CCC3(CC2)CN(c2ncnnc2Oc2ccc(F)cc2CN2C(=O)CC4CC42)C3)CC1 (racemic)	112 nM

tested on: not listed separately; test: Volume of distribution at steady state in male CD-1 mouse at 1 mg/kg, iv measured after 8 hrs by LC-MS/MS analysis; type: ADME, organism-based; conditions: in vivo, read-out: Vdss

Compound	Vd
CCN(C(=O)c1cc(F)ccc1Oc1nncnc1N1CC2(CCN(CC3(C)CC3)CC2)C1)C(C)C	14.1 L/kg
CC(C)C1(CN2CCC3(CC2)CN(c2ncnnc2Oc2ccc(F)cc2CN2C(=O)COC[C@H]2C)C3)CC1	5.44 L/kg
CC1(CN2CCC3(CC2)CN(c2ncnnc2Oc2ccc(F)cc2CN2C(=O)CC4CC42)C3)CC1 (racemic)	4.14 L/kg

tested on: not listed separately; test: AUCinfinity in male CD-1 mouse at 1 mg/kg, iv measured after 8 hrs by LC-MS/MS analysis; type: ADME, organism-based; conditions: in vivo

Compound	AUC(0-inf)
CCN(C(=O)c1cc(F)ccc1Oc1nncnc1N1CC2(CCN(CC3(C)CC3)CC2)C1)C(C)C	92 ng·h/mL
CC(C)C1(CN2CCC3(CC2)CN(c2ncnnc2Oc2ccc(F)cc2CN2C(=O)COC[C@H]2C)C3)CC1	128 ng·h/mL
CC1(CN2CCC3(CC2)CN(c2ncnnc2Oc2ccc(F)cc2CN2C(=O)CC4CC42)C3)CC1 (racemic)	160 ng·h/mL

tested on: not listed separately; test: Apparent permeability across apical to basolateral side in MDR1 knockout dog MDCKII cells incubated for 2 hrs by LC-MS/MS analysis; type: ADME, cell-based, Canis lupus familiaris, MDCK-II; conditions: MDCK

Compound	Papp A→B at 2 h
CCN(C(=O)c1cc(F)ccc1Oc1nncnc1N1CC2(CCN(CC3(SC)CC3)CC2)C1)C(C)C	42 ×10⁻⁶ cm/s
CCC1(CN2CCC3(CC2)CN(c2ncnnc2Oc2ccc(F)cc2CN2C(=O)COC[C@H]2C)C3)CC1	29 ×10⁻⁶ cm/s
CSC1(CN2CCC3(CC2)CN(c2ncnnc2Oc2ccc(F)cc2CN2C(=O)COC[C@H]2C)C3)CC1	8 ×10⁻⁶ cm/s
CC1(CN2CCC3(CC2)CN(c2ncnnc2Oc2ccc(F)cc2CN2CCOCC2=O)C3)CC1	8 ×10⁻⁶ cm/s
C[C@@H]1COCC(=O)N1Cc1cc(F)ccc1Oc1nncnc1N1CC2(CCN(CC3(C)CC3)CC2)C1	7 ×10⁻⁶ cm/s
CC1(CN2CCC3(CC2)CN(c2ncnnc2Oc2ccc(F)cc2C(=O)N2CCOCC2)C3)CC1	4 ×10⁻⁶ cm/s
CCN(C(=O)c1cc(F)ccc1Oc1nncnc1N1CC2(CCN(CC3(C)CC3)CC2)C1)C(C)C	35 ×10⁻⁶ cm/s
CSC1(CN2CCC3(CC2)CN(c2ncnnc2Oc2ccc(F)cc2CN2CCCC2=O)C3)CC1	6 ×10⁻⁶ cm/s
CC(C)C1(CN2CCC3(CC2)CN(c2ncnnc2Oc2ccc(F)cc2CN2C(=O)COC[C@H]2C)C3)CC1	35 ×10⁻⁶ cm/s
CCN(C(=O)c1cc(F)ccc1Oc1nnccc1N1CC2(CCN(CC3(C)CC3)CC2)C1)C(C)C	7 ×10⁻⁶ cm/s
C[C@@H]1CCCCN1C(=O)c1cc(F)ccc1Oc1nncnc1N1CC2(CCN(CC3(C)CC3)CC2)C1	21 ×10⁻⁶ cm/s
C[C@@H]1COC[C@H](C)N1C(=O)c1cc(F)ccc1Oc1nncnc1N1CC2(CCN(CC3(C)CC3)CC2)C1	13 ×10⁻⁶ cm/s
C[C@@H]1CCCN1C(=O)c1cc(F)ccc1Oc1nncnc1N1CC2(CCN(CC3(C)CC3)CC2)C1	23 ×10⁻⁶ cm/s
C[C@@H]1COC[C@@H](C)N1C(=O)c1cc(F)ccc1Oc1nncnc1N1CC2(CCN(CC3(C)CC3)CC2)C1	8 ×10⁻⁶ cm/s
CC1(CN2CCC3(CC2)CN(c2ncnnc2Oc2ccc(F)cc2CN2C(=O)CC4CC42)C3)CC1 (racemic)	9 ×10⁻⁶ cm/s

target: Voltage-gated inwardly rectifying potassium channel KCNH2 (Homo sapiens, UniProt Q12809); test: Inhibition of hERG expressed in CHO cells; type: toxicity, cell-based; conditions: not given
Sequence (Q12809 whole entry): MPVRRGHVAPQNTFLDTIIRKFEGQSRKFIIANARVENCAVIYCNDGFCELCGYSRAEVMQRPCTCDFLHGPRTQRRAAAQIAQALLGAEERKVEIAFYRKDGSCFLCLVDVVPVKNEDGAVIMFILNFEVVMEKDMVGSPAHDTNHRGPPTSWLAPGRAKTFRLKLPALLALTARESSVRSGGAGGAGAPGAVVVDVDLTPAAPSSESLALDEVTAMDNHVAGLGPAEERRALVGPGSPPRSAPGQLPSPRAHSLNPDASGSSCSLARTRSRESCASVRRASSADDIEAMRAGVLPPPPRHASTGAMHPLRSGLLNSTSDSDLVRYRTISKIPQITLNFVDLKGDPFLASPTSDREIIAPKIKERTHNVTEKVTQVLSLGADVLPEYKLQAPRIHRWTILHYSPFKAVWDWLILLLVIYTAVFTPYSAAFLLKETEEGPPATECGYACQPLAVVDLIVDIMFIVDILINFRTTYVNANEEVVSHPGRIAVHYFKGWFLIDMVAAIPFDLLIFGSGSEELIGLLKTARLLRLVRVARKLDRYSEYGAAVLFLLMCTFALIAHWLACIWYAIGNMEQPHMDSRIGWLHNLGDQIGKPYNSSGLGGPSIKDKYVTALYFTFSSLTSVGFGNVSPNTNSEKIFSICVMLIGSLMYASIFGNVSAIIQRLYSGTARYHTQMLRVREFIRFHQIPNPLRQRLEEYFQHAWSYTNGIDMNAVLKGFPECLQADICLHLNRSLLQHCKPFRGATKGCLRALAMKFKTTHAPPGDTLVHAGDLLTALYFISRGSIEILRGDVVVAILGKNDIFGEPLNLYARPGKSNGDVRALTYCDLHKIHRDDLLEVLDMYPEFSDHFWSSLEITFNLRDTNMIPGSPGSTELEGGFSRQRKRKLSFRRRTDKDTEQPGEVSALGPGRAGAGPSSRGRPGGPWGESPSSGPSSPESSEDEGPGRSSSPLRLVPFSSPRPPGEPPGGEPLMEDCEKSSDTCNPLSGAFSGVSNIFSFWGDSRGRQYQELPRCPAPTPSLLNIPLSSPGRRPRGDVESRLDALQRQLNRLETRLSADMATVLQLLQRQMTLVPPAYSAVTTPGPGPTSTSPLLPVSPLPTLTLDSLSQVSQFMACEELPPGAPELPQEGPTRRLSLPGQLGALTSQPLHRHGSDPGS

Compound	IC50
CCN(C(=O)c1cc(F)ccc1Oc1nncnc1N1CC2(CCN(CC3(SC)CC3)CC2)C1)C(C)C	75000 nM
CC1(CN2CCC3(CC2)CN(c2ncnnc2Oc2ccc(F)cc2C(=O)N2CCOCC2)C3)CC1	46000 nM
CCN(C(=O)c1cc(F)ccc1Oc1nncnc1N1CC2(CCN(CC3(C)CC3)CC2)C1)C(C)C	28000 nM
CCN(C(=O)c1cc(F)ccc1Oc1nnccc1N1CC2(CCN(CC3(C)CC3)CC2)C1)C(C)C	28000 nM

tested on: not listed separately; test: Metabolic stability in human hepatocytes assessed as clearance by LC-MS analysis; type: ADME, cell-based, Hepatocyte; conditions: read-out: CLH

Compound	CLint scaled
CCN(C(=O)c1cc(F)ccc1Oc1nncnc1N1CC2(CCN(CC3(SC)CC3)CC2)C1)C(C)C	14 mL/min/kg
CCC1(CN2CCC3(CC2)CN(c2ncnnc2Oc2ccc(F)cc2CN2C(=O)COC[C@H]2C)C3)CC1	6 mL/min/kg
CSC1(CN2CCC3(CC2)CN(c2ncnnc2Oc2ccc(F)cc2CN2C(=O)COC[C@H]2C)C3)CC1	8 mL/min/kg
CC1(CN2CCC3(CC2)CN(c2ncnnc2Oc2ccc(F)cc2CN2CCOCC2=O)C3)CC1	6 mL/min/kg
C[C@@H]1COCC(=O)N1Cc1cc(F)ccc1Oc1nncnc1N1CC2(CCN(CC3(C)CC3)CC2)C1	4 mL/min/kg
CC1(CN2CCC3(CC2)CN(c2ncnnc2Oc2ccc(F)cc2C(=O)N2CCOCC2)C3)CC1	6 mL/min/kg
CCN(C(=O)c1cc(F)ccc1Oc1nncnc1N1CC2(CCN(CC3(C)CC3)CC2)C1)C(C)C	6 mL/min/kg
CSC1(CN2CCC3(CC2)CN(c2ncnnc2Oc2ccc(F)cc2CN2CCCC2=O)C3)CC1	11 mL/min/kg
CC(C)C1(CN2CCC3(CC2)CN(c2ncnnc2Oc2ccc(F)cc2CN2C(=O)COC[C@H]2C)C3)CC1	10 mL/min/kg
CCN(C(=O)c1cc(F)ccc1Oc1nnccc1N1CC2(CCN(CC3(C)CC3)CC2)C1)C(C)C	8 mL/min/kg
C[C@@H]1CCCCN1C(=O)c1cc(F)ccc1Oc1nncnc1N1CC2(CCN(CC3(C)CC3)CC2)C1	9 mL/min/kg
C[C@@H]1COC[C@H](C)N1C(=O)c1cc(F)ccc1Oc1nncnc1N1CC2(CCN(CC3(C)CC3)CC2)C1	5 mL/min/kg
C[C@@H]1CCCN1C(=O)c1cc(F)ccc1Oc1nncnc1N1CC2(CCN(CC3(C)CC3)CC2)C1	27 mL/min/kg
C[C@@H]1COC[C@@H](C)N1C(=O)c1cc(F)ccc1Oc1nncnc1N1CC2(CCN(CC3(C)CC3)CC2)C1	7 mL/min/kg
CC1(CN2CCC3(CC2)CN(c2ncnnc2Oc2ccc(F)cc2CN2C(=O)CC4CC42)C3)CC1 (racemic)	4 mL/min/kg

tested on: not listed separately; test: Inhibition of His6-tagged MEN1 458-551 deletion A5T mutant (2 to 583 residues)/MLL (unknown origin) transfected in Escherichia coli BL21 (DE3) protein-protein interaction by TR-FRET assay; parameters: species or system Homo sapiens; conditions: not given

Compound	IC50
CCN(C(=O)c1cc(F)ccc1Oc1nncnc1N1CC2(CCN(CC3(SC)CC3)CC2)C1)C(C)C	8 nM
CCC1(CN2CCC3(CC2)CN(c2ncnnc2Oc2ccc(F)cc2CN2C(=O)COC[C@H]2C)C3)CC1	5 nM
CSC1(CN2CCC3(CC2)CN(c2ncnnc2Oc2ccc(F)cc2CN2C(=O)COC[C@H]2C)C3)CC1	4 nM
CC1(CN2CCC3(CC2)CN(c2ncnnc2Oc2ccc(F)cc2CN2CCOCC2=O)C3)CC1	5 nM
C[C@@H]1COCC(=O)N1Cc1cc(F)ccc1Oc1nncnc1N1CC2(CCN(CC3(C)CC3)CC2)C1	4 nM
CC1(CN2CCC3(CC2)CN(c2ncnnc2Oc2ccc(F)cc2C(=O)N2CCOCC2)C3)CC1	62 nM
CCN(C(=O)c1cc(F)ccc1Oc1nncnc1N1CC2(CCN(CC3(C)CC3)CC2)C1)C(C)C	10 nM
CSC1(CN2CCC3(CC2)CN(c2ncnnc2Oc2ccc(F)cc2CN2CCCC2=O)C3)CC1	5 nM
CC(C)C1(CN2CCC3(CC2)CN(c2ncnnc2Oc2ccc(F)cc2CN2C(=O)COC[C@H]2C)C3)CC1	4 nM
CCN(C(=O)c1cc(F)ccc1Oc1nnccc1N1CC2(CCN(CC3(C)CC3)CC2)C1)C(C)C	11 nM
C[C@@H]1CCCCN1C(=O)c1cc(F)ccc1Oc1nncnc1N1CC2(CCN(CC3(C)CC3)CC2)C1	20 nM
C[C@@H]1COC[C@H](C)N1C(=O)c1cc(F)ccc1Oc1nncnc1N1CC2(CCN(CC3(C)CC3)CC2)C1	9 nM
C[C@@H]1CCCN1C(=O)c1cc(F)ccc1Oc1nncnc1N1CC2(CCN(CC3(C)CC3)CC2)C1	6 nM
C[C@@H]1COC[C@@H](C)N1C(=O)c1cc(F)ccc1Oc1nncnc1N1CC2(CCN(CC3(C)CC3)CC2)C1	23 nM
CC1(CN2CCC3(CC2)CN(c2ncnnc2Oc2ccc(F)cc2CN2C(=O)CC4CC42)C3)CC1 (racemic)	6 nM

tested on: not listed separately; test: Metabolic stability in human liver microsomes assessed as clearance incubated for 20 mins by LC-MS/MS analysis; type: ADME, Microsome; conditions: read-out: CLH

Compound	CLint scaled
CC1(CN2CCC3(CC2)CN(c2ncnnc2Oc2ccc(F)cc2CN2C(=O)CC4CC42)C3)CC1 (racemic)	4 mL/min/kg

tested on: not listed separately; test: Clearance in male CD-1 mouse at 1 mg/kg, iv measured after 8 hrs by LC-MS/MS analysis; type: ADME, organism-based; conditions: in vivo

Compound	clearance
CCN(C(=O)c1cc(F)ccc1Oc1nncnc1N1CC2(CCN(CC3(C)CC3)CC2)C1)C(C)C	129 mL/min/kg
CC(C)C1(CN2CCC3(CC2)CN(c2ncnnc2Oc2ccc(F)cc2CN2C(=O)COC[C@H]2C)C3)CC1	130 mL/min/kg
CC1(CN2CCC3(CC2)CN(c2ncnnc2Oc2ccc(F)cc2CN2C(=O)CC4CC42)C3)CC1 (racemic)	104 mL/min/kg
